A word on the IC50: it is the point on the concentration scale where inhibition reaches its midpoint.

Consider 27 compounds from patent US12565501B2, “Muscarinic acetylcholine M1 receptor antagonists” (Contineum Therapeutics, Inc., priority 2019, dated 2026).

The assay has as its target T1, human M1 receptor (Homo sapiens, UniProt P11229).
T1 sequence (P11229 1-460): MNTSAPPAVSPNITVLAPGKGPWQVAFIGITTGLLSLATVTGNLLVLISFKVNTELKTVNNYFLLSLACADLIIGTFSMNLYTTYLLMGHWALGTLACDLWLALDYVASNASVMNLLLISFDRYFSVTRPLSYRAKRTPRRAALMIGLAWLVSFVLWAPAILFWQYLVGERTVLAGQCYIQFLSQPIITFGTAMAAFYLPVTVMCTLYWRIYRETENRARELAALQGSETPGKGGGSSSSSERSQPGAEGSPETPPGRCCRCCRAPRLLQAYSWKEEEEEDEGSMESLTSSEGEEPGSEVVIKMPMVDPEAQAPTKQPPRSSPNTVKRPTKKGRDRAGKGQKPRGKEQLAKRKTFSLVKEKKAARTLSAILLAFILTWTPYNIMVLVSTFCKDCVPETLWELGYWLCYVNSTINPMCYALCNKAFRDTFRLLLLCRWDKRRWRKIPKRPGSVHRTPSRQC
The experiment in a line: In vitro functional assay of muscarinic acetylcholine receptor activity (aequorin calcium flux, reversal of EC80 acetylcholine response). The note with it: CHO-K1 cells stably expressing human M1 receptor with aequorin; acetylcholine at EC80; calcium flux (luminescence); read-out: M1 IC50. It counts as cell-based. The protocol:
CHO-K1 cells stably expressing human M1 receptor with aequorin (Perkin Elmer) were grown in F12 media (Gibco) containing 10% FBS (ATCC), 0.4 mg/mL geneticin (Sigma-Aldrich) and 0.25 mg/mL Zeocin (Invitrogen). Cells were grown as per the manufacturer's protocol. For compound testing, cells were grown to confluency and detached gently with Accutase (Sigma-Aldrich) followed by centrifugation for 5 min at 150× g. Cells were then re-suspended in assay buffer (i.e. DMEM/F-12 HEPES without phenol red (Invitrogen) with 0.1% BSA (Sigma-Aldrich)) at a density of 5×10^6 cells/ml. Under sterile conditions, 5 μM coelenterazine (Invitrogen) was added to the cells, mixed, then incubated at room temperature protected from light, with gentle agitation, for 4 h.
Primary compound plates were prepared in 100% DMSO in opaque 96-well plates (VWR) and serially diluted in half log increments. Secondary compound plates were prepared at 3× concentration in assay buffer. Compounds were added to white, clear bottom tissue culture treated 96-well plates (Fisher Scientific). Coelenterazine-loaded cells were then added at 5×10^5 cells/well.
Compounds and cells were incubated at room temperature for 30 min in the dark. Acetylcholine at the EC80 concentration was added and calcium flux measured using a FlexStation 3 (Molecular Devices). Sigmoidal dose-response curves were generated by measuring luminescence over 40 sec and calculating the area under the curve. Dose response curves and IC50 values were generated using Prism (GraphPad). Compounds were tested at a final concentration range of 100 μM to […] in 0.1% DMSO.
For orientation: Calcium flux is commonly read through the fluorescence of an indicator in the cells.

With “6-(3-(2-(1-(1-methyl-6-oxo-1,6-dihydropyridin-3-yl) cyclopropoxy)acetyl)-3,8-diazabicyclo[3.2.1]octan- 8-yl)nicotinonitrile [Example 301]”, the IC50 was 100 to 1000 nM.
Regarding `N#Cc1ccc(N2[C@@H]3CC[C@H]2CN(C(=O)CCN2CCC2c2ccc(F)cc2)C3)nc1` (mixture of isomers) [Example 23, 6-(3-(3-(2-(4-fluorophenyl)azetidin-1-yl)propanoyl)-3,8-diazabicyclo[3.2.1]octan-8-yl)nicotinonitrile], the IC50 lay within 1000 to 10000 nM.
As for `COc1cccc2c1CCN(CCC(=O)N1C[C@H]3CC[C@@H](C1)N3c1ccc(C#N)cn1)C2C` (mixture of isomers) [Example 38, 6-(3-(3-(5-methoxy-1-methyl-3,4-dihydroisoquinolin-2(1H)-yl)propanoyl)-3,8-diazabicyclo[3.2.1]octan-8-yl)nicotinonitrile], the IC50 was in the range of 1000 to 10000 nM.
Regarding `CC(NCCC(=O)N1CC2CCC(C1)N2c1ccc(C#N)cn1)c1cccc2ncccc12` (racemic) [Example 48, 6-(3-(3-((1-(quinolin-5-yl)ethyl)amino)propanoyl)-3,8-diazabicyclo[3.2.1]octan-8-yl)nicotinonitrile], the IC50 is under 10 nM.
`CC(C)(O)C(NCCC(=O)N1C[C@H]2CC[C@@H](C1)N2c1ccc(C#N)cn1)c1ccccc1` (mixture of isomers) [Example 49, 6-(3-(3-((2-hydroxy-2-methyl-1-phenylpropyl)amino)propanoyl)-3,8-diazabicyclo[3.2.1]octan-8-yl)nicotinonitrile]: the IC50 fell in the range of 1000 to 10000 nM.
On to `COc1cnc2cccc(C(C)NCCC(=O)N3C[C@H]4CC[C@@H](C3)N4c3ccc(C#N)cn3)c2c1` (mixture of isomers) [Example 50, 6-(3-(3-((1-(3-methoxyquinolin-5-yl)ethyl)amino)propanoyl)-3,8-diazabicyclo[3.2.1]octan-8-yl)nicotinonitrile], for which the IC50 was under 10 nM.
Take `CC(NCCC(=O)N1C[C@H]2CC[C@@H](C1)N2c1ccc(C#N)cn1)c1cccc2ncsc12` (mixture of isomers) [Example 51, 6-(3-(3-((1-(benzo[d]thiazol-7-yl)ethyl)amino)propanoyl)-3,8-diazabicyclo[3.2.1]octan-8-yl)nicotinonitrile]: the IC50 lay in the range of 10 to 100 nM.
Turning to `N#Cc1ccc(N2[C@@H]3CC[C@H]2CN(C(=O)CCNC(c2cccc4ncsc24)C(F)(F)F)C3)nc1` (mixture of isomers) [Example 52, 6-(3-(3-((1-(benzo[d]thiazol-7-yl)-2,2,2-trifluoroethyl)amino)propanoyl)-3,8-diazabicyclo[3.2.1]octan-8-yl)nicotinonitrile], the IC50 is under 10 nM.
For `CC(NCCC(=O)N1C[C@H]2CC[C@@H](C1)N2c1ccc(C#N)cn1)c1c(F)ccc2nccn12` (mixture of isomers) [Example 53, 6-(3-(3-((1-(6-fluoroimidazo[1,2-a]pyridin-5-yl)ethyl)amino)propanoyl)-3,8-diazabicyclo[3.2.1]octan-8-yl)nicotinonitrile], the IC50 fell in the range of 10 to 100 nM.
For the compound `CC(NCC(=O)N1CC2CCC(C1)N2c1ccc(C#N)cn1)c1cccc2ncnn12` (racemic) [Example 54, 6-(3-((1-([1,2,4]triazolo[1,5-a]pyridin-5-yl)ethyl)glycyl)-3,8-diazabicyclo[3.2.1]octan-8-yl)nicotinonitrile], the IC50 lay in the range of 10 to 100 nM.
On to `COc1c(F)cccc1C(C)NCC(=O)N1CC2CCC(C1)N2c1ccc(C#N)cn1` (racemic) [Example 55, 6-(3-((1-(3-fluoro-2-methoxyphenyl)ethyl)glycyl)-3,8-diazabicyclo[3.2.1]octan-8-yl)nicotinonitrile], for which the concentration for half-maximal inhibition (IC50) was under 10 nM.
With `COc1cc(F)ccc1C(C)NCC(=O)N1CC2CCC(C1)N2c1ccc(C#N)cn1` (racemic) [Example 56, 6-(3-((1-(4-fluoro-2-methoxyphenyl)ethyl)glycyl)-3,8-diazabicyclo[3.2.1]octan-8-yl)nicotinonitrile], the IC50 is under 10 nM.
For the compound `COc1cc(C(C)NCC(=O)N2CC3CCC(C2)N3c2ccc(C#N)cn2)ccc1F` (racemic) [Example 57, 6-(3-((1-(4-fluoro-3-methoxyphenyl)ethyl)glycyl)-3,8-diazabicyclo[3.2.1]octan-8-yl)nicotinonitrile], the IC50 was under 10 nM.
On to `N#Cc1ccc(N2C3CCC2CN(C(=O)CNC2CCc4ccccc42)C3)nc1` (racemic) [Example 89, 6-(3-((2,3-dihydro-1H-inden-1-yl)glycyl)-3,8-diazabicyclo[3.2.1]octan-8-yl)nicotinonitrile], for which the IC50 lay within 1000 to 10000 nM.
The same measure for `COc1ccc2c(c1)C(NCC(=O)N1CC3CCC(C1)N3c1ccc(C#N)cn1)CC2` (racemic) [Example 90, 6-(3-((6-methoxy-2,3-dihydro-1H-inden-1-yl)glycyl)-3,8-diazabicyclo[3.2.1]octan-8-yl)nicotinonitrile]: 100 to 1000 nM.
Consider `N#Cc1ccc(N2C3CCC2CN(C(=O)CNC2CCc4cc(F)cc(F)c42)C3)nc1` (racemic) [Example 91, 6-(3-((5,7-difluoro-2,3-dihydro-1H-inden-1 yl)glycyl)-3,8-diazabicyclo[3.2.1]octan-8-yl)nicotinonitrile], for which the IC50 lay in the range of 100 to 1000 nM.
On to `N#Cc1ccc(N2C3CCC2CN(C(=O)CN2CCC2c2ccc(F)cc2)C3)nc1` (racemic) [Example 104], for which the IC50 was over 1000 nM.
In the case of `CC1c2ccccc2CCN1CC(=O)N1CC2CCC(C1)N2c1ccc(C#N)cn1` (racemic) [Example 106, 6-(3-(2-(1-methyl-3,4-dihydroisoquinolin-2(1H)-yl)acetyl)-3,8-diazabicyclo[3.2.1]octan-8-yl)nicotinonitrile], the IC50 was in the range of 100 to 1000 nM.
The result for `COc1ccc2c(c1)C(C)N(CC(=O)N1CC3CCC(C1)N3c1ccc(C#N)cn1)CC2` (racemic) [Example 120, 6-(3-(2-(7-methoxy-1-methyl-3,4-dihydroisoquinolin-2(1H)-yl)acetyl)-3,8-diazabicyclo[3.2.1]octan-8-yl)nicotinonitrile] reads 1000 to 10000 nM.
With `COc1cccc2c1CCN(CC(=O)N1CC3CCC(C1)N3c1ccc(C#N)cn1)C2C` (racemic) [Example 121, 6-(3-(2-(5-methoxy-1-methyl-3,4-dihydroisoquinolin-2(1H)-yl)acetyl)-3,8-diazabicyclo[3.2.1]octan-8-yl)nicotinonitrile], the IC50 lay within 100 to 1000 nM.
As for `COc1cncc(C(NCC(=O)N2CC3CCC(C2)N3c2ccc(C#N)cn2)C(F)F)c1` (racemic) [Example 127, 6-(3-((2,2-difluoro-1-(5-methoxypyridin-3-yl)ethyl)glycyl)-3,8-diazabicyclo[3.2.1]octan-8-yl)nicotinonitrile], the IC50 was under 10 nM.
On to `N#Cc1ccc(N2C3CCC2CN(C(=O)CNC(c2ccc(F)cc2F)C(F)F)C3)nc1` (racemic) [Example 128, 6-(3-((1-(2.4-difluorophenyl)-2,2-difluoroethyl)glycyl)-3,8-diazabicyclo[3.2.1]octan-8-yl)nicotinonitrile], for which the half-maximal inhibitory concentration (IC50) fell in the range of 10 to 100 nM.
Take `N#Cc1ccc(N2C3CCC2CN(C(=O)CCNC(c2ccc(F)c(F)c2)C(F)F)C3)nc1` (racemic) [Example 129, 6-(3-(3-((1-(3,4-difluorophenyl)-2,2-difluoroethyl)amino)propanoyl)-3,8-diazabicyclo[3.2.1]octan-8-yl)nicotinonitrile]: the IC50 is under 10 nM.
The same measure for `CC(SCC(=O)N1CC2CCC(C1)N2c1ccc(C#N)cn1)c1ccccc1` (racemic) [Example 132, 6-(3-(2-((1-phenylethyl)thio)acetyl)-3,8-diazabicyclo[3.2.1]octan-8-yl)nicotinonitrile]: under 10 nM; for `CC(SCC(=O)N1CC2CCC(C1)N2c1ccc(C#N)cn1)c1ccc(F)cc1` (racemic) [Example 133, 6-(3-(2-((1-(4-fluorophenyl)ethyl)thio)acetyl)-3,8-diazabicyclo[3.2.1]octan-8-yl)nicotinonitrile]: 10 to 100 nM.
For the compound `CC(SCCC(=O)N1CC2CCC(C1)N2c1ccc(C#N)cn1)c1ccccc1` (racemic) [Example 134, 6-(3-(3-((1-phenylethyl)thio)propanoyl)-3,8-diazabicyclo[3.2.1]octan-8-yl)nicotinonitrile], the IC50 was 100 to 1000 nM.
In the case of `CC(SCCC(=O)N1CC2CCC(C1)N2c1ccc(C#N)cn1)c1ccc(F)cc1` (racemic) [Example 135, 6-((3-((1-(4-fluorophenyl)ethyl)thio)propanoyl)-3,8-diazabicyclo[3.2.1]octan-8-yl)nicotinonitrile], the IC50 was in the range of 1000 to 10000 nM.
